Our source for the IC50, inhibition and Activity values is ChEMBL document CHEMBL5620354, “Development of isoselenazolium chlorides as selective pyruvate kinase isoform M2 inhibitors” (Eur J Med Chem, 2023).

A short description of series [1]: Cytotoxicity against rat H9c2 cells assessed as inhibition of cell growth incubated for 48 hrs by MTT assay. The series is classed as toxicity, cell-based.
Series [2] deals with Jurkat. As to the kind of experiment: Cytotoxicity against human Jurkat cells assessed as inhibition of cell growth incubated for 48 hrs by MTT assay. The series is classed as functional, cell-based.
Series [3] has as its system HCC1937. Briefly: Cytotoxicity against human HCC1937 cells assessed as inhibition of cell growth incubated for 48 hrs by MTT assay. The series is classed as functional, cell-based. The conditions noted are these: HCC1937, 48 h.
The target in series [4] is T1, Pyruvate kinase PKM (Homo sapiens, UniProt P14618). Briefly: Inhibition of N-terminal his8-tagged PKM2 (unknown origin).
Target sequence in this assay (P14618 whole entry): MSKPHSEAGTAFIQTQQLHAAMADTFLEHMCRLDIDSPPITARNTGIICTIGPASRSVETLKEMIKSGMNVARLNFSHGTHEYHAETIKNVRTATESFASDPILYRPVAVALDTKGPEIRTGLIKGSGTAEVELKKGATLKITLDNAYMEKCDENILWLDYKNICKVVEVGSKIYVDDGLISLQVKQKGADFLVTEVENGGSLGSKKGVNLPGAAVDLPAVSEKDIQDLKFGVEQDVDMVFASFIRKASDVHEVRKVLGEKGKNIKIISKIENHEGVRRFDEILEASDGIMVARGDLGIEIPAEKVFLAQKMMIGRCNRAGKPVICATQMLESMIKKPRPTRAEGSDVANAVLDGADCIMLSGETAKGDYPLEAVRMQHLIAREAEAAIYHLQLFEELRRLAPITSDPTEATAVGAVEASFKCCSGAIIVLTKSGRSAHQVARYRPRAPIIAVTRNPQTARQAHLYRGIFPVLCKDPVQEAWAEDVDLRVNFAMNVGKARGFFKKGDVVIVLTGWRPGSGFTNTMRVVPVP
Series [5] has as its system MCF7. As to the kind of experiment: cells. The settings on record: Homo sapiens, MCF7, 48 h.
Description: Cytotoxicity against human MCF7 cells assessed as inhibition of cell growth incubated for 48 hrs by MTT assay
The subject of series [6] is MDA-MB-231. Briefly: Cytotoxicity against human MDA-MB-231 cells assessed as inhibition of cell growth incubated for 48 hrs by MTT assay. Type of series: functional, cell-based. The settings on record: MDA-MB-231, 48 h.
The subject of series [7] is 4T1. Briefly: Cytotoxicity against mouse 4T1 cells assessed as inhibition of cell growth incubated for 48 hrs by MTT assay. Type of series: functional, cell-based. The settings on record: 4T1, 48 h.
In series [8] the target is T1, Pyruvate kinase PKM. As to the kind of experiment: Inhibition of PKM1 (unknown origin). Details: concentration or dose not given beside the values. The conditions noted are these: concentration not given here.
Target sequence in this assay (P14618 2-531 limits assumed): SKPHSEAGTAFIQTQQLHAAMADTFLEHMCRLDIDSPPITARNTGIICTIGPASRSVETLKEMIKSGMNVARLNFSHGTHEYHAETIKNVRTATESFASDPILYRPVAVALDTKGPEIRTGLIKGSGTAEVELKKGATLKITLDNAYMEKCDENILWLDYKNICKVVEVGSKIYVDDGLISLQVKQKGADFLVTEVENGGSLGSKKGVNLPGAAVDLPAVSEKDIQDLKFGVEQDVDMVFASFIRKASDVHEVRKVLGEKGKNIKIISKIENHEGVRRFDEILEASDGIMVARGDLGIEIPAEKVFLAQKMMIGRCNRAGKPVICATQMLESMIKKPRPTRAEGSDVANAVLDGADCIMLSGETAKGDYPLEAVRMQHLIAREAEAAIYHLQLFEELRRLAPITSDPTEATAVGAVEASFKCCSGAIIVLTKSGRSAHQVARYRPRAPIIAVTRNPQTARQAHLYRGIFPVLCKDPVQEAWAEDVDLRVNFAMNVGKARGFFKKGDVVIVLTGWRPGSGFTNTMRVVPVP
The species named for series [9] is Oryctolagus cuniculus. Briefly: Inhibition of rabbit LDH at 1 uM relative to control.
The subject of series [10] is A549. Briefly: cells. The settings on record: Homo sapiens, A549, 48 h.
Description: Cytotoxicity against human A549 cells assessed as inhibition of cell growth incubated for 48 hrs by MTT assay
The target in series [11] is Pyruvate kinase PKLR (Homo sapiens) (UniProt P30613). Briefly: Inhibition of PKR (unknown origin) at 1 uM relative to control.
Series [12] addresses T1, Pyruvate kinase PKM. Briefly: Inhibition of N-terminal his8-tagged PKM2 (unknown origin) in presence of FBP by Michaelis-menten analysis.
Target sequence in this assay (P14618 whole entry): as the sequence (P14618 whole entry) above
Series [13] deals with T1, Pyruvate kinase PKM. Briefly: Inhibition of PKM2 (unknown origin) assessed as increase in tetramer ratio by analytical size-exclusion chromatography. The settings on record: dose 5.0 µM.
Target sequence in this assay (P14618 2-531 limits assumed): as the sequence (P14618 2-531 limits assumed) above
For series [14], the target named is T1, Pyruvate kinase PKM. Briefly: Inhibition of PKM2 (unknown origin) assessed as decrease in monomer population at 5 uM by analytical size-exclusion chromatography relative to control.
Target sequence in this assay (P14618 2-531 limits assumed): as above
Series [15] concerns the target T1, Pyruvate kinase PKM. Briefly: Inhibition of PKM2 (unknown origin) assessed as decrease in dimer population by analytical size-exclusion chromatography. The settings on record: dose 5.0 µM.
Target sequence in this assay (P14618 2-531 limits assumed): as above
For series [16], the target named is T1, Pyruvate kinase PKM. Briefly: Inhibition of PKM2 (unknown origin) assessed as decrease in dimer population at 5 uM by analytical size-exclusion chromatography relative to control.
Target sequence in this assay (P14618 2-531 limits assumed): as above
Series [17] concerns the target T1, Pyruvate kinase PKM. As to the kind of experiment: Inhibition of PKM2 (unknown origin) assessed as decrease in dimer population at 5 uM in presence of FBP by analytical size-exclusion chromatography relative to control.
Target sequence in this assay (P14618 2-531 limits assumed): as above
Series [18] deals with T1, Pyruvate kinase PKM. As to the kind of experiment: Binding affinity to PKM2 (unknown origin) assessed as protein destabilization by differential scanning fluorimetry. The conditions noted are these: dose 2.5-10 µM.

Sequence of Pyruvate kinase PKLR (Homo sapiens) (P30613 whole entry, looked up): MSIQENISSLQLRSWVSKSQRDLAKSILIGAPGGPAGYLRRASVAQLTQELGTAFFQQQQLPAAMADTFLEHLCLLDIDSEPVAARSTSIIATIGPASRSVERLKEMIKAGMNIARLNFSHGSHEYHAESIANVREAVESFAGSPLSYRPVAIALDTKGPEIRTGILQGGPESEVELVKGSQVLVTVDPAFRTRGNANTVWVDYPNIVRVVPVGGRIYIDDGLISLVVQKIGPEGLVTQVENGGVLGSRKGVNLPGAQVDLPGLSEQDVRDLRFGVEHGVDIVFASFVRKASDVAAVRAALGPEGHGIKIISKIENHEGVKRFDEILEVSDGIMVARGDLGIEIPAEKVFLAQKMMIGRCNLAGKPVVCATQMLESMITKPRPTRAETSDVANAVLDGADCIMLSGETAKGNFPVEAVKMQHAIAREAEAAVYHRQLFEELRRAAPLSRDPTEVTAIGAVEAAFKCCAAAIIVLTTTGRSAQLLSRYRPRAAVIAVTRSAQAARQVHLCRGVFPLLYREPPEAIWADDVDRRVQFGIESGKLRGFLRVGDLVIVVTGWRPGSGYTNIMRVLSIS

For `CCCCCCCCCCCCCC(C)(O)c1[se][n+]2ccc(C(=O)OC)cc2c1Br` (stereo not drawn), the IC50 at 48 h in [1] came out at 3.63 µM. The IC50 is 3.38 µM in [2], 2.45 µM in series [3], above 1 µM in series [4] and 3.79 µM in [5].
Regarding `COC(=O)c1cc(C)[n+]2[se]c(C3(O)CCCCC3)c(Br)c2c1`, in [1], the IC50 at 48 h is 0.9 µM. For the same compound, the IC50 in series [2] is 0.45 µM; in [3], 0.34 µM; in [6], 0.37 µM; in series [7] (read-out: IC50), 0.96 µM; in series [4] it was 1.36 µM; in series [5], 0.3 µM. This compound showed an IC50 in [10] of 1.12 µM. Also, the values for the inhibition in [8], in series [9] and in series [11] were 10%, 7% and 28%, respectively.
With `COC(=O)c1cc[n+]2[se]c(C3([O-])CCC3)c(Br)c2c1`, the IC50 at 48 h in series [1] was determined as 2.97 µM. The IC50 in series [2] is 3.24 µM; in [3], 3.03 µM; in series [6], 6.51 µM; in series [7] (read-out: IC50), above 10 µM; in series [4], 0.854 µM; in series [12], 0.603 µM. Also, the results for the IC50 in series [5] and in series [10] were 2.8 µM and 9.12 µM, respectively. Also, the inhibition in [8] turned out to be 26%; in [9], 7%; in series [11], 20%.
Take `CCCCCCCCCCCCCC(C)(O)c1[se][n+]2ccc(C(N)=O)cc2c1Br` (stereo not drawn): the IC50 at 48 h in series [1] came out at 1.91 µM. Also, the IC50 is 2 µM in series [2]; 0.91 µM in series [3]; 2.42 µM in series [6]; 4.32 µM in series [7] (read-out: IC50); 0.901 µM in [4]; 1.01 µM in series [5]. For the same compound, in series [10], the IC50 stood at 3.72 µM. Also, the inhibition is 23% in series [8], 9% in [9] and 29% in series [11].
Consider `O=C(O)c1cc[n+]2[se]c(C3(O)CCCCC3)c(Br)c2c1`, for which the IC50 at 48 h in [1] was 7.82 µM. In addition, the IC50 was 6.61 µM in series [2]; 5.82 µM in [3]; 6.12 µM in series [6]; 6.81 µM in [7] (read-out: IC50); 1.06 µM in series [4]; above 10 µM in series [5]. The compound also showed an IC50 in [10] of 7.03 µM. For the same compound, the inhibition in series [8] was determined as 4%; in series [9] it was 9%; in series [11], 5%.
`COC(=O)c1ccc2c(Br)c(C3(O)CCCCC3)[se][n+]2c1`: the IC50 at 48 h in series [1] was 0.89 µM. Moreover, the IC50 turned out to be 0.25 µM in series [2]; 0.31 µM in series [3]; 0.43 µM in [6]; 0.7 µM in series [7] (read-out: IC50); 0.545 µM in series [4]; 0.303 µM in series [12]. Further, the IC50 in series [5] amounted to 0.87 µM; in [10], 1.31 µM. The inhibition in series [8] amounted to 16%; in series [9] it was 10%; in series [11], 39%.
For the compound `NC(=O)c1ccc2c(Br)c(C3(O)CCCCC3)[se][n+]2c1`, in series [1], the IC50 at 48 h turned out to be 1.27 µM. The IC50 in series [2] was 0.6 µM; in series [3], 1.5 µM; in series [4], above 1 µM; in series [5] it was 2.3 µM.
In the case of `COC(=O)c1cc[n+]2[se]c(C3(O)C4CC5CC(C4)CC3C5)c(Br)c2c1` (stereo not drawn), the IC50 at 48 h in series [1] is 4.76 µM. Moreover, the IC50 in series [2] was 6.18 µM; in series [3], 2.89 µM; in series [4], above 1 µM; in [5] it was 6.87 µM.
Regarding `OC1(c2[se][n+]3ccccc3c2Br)CCCCC1`, the values for the IC50 in series [4] and in [12] were 2.92 µM and 2.73 µM, respectively.
Consider `NC(=O)c1cc[n+]2[se]c(C3(O)CCCCC3)c(Br)c2c1`, for which the IC50 at 48 h in series [1] is 1.41 µM. Besides, the IC50 in series [2] is 1 µM; in [3], 0.6 µM; in series [6] it was 1.15 µM; in series [7] (read-out: IC50), 1.41 µM; in series [4], 0.42 µM; in series [12] it was 0.572 µM. For the same compound, the IC50 in series [5] is 2.22 µM; in series [10], 2.81 µM. In addition, the inhibition in [8] is 15%; in [9] it was 6%; in [13] it was “Dose-Dependent Effect”; in series [14] it was 38%; in [15], “Dose-Dependent Effect”; in series [16] it was 69.1%. The inhibition was 43.2% in [17] and 37% in series [11]. Besides, the Activity entry in series [18] was “Dose-Dependent Effect”.
As for `COc1cccc2c1C(=O)c1c(O)c3c(c(O)c1C2=O)C[C@@](O)(C(=O)CO)C[C@@H]3O[C@H]1C[C@H](N)[C@H](O)[C@H](C)O1` [DOXORUBICIN], the IC50 at 48 h in series [1] was 3.9 µM. Besides, the IC50 in series [2] worked out at 0.32 µM; in [3] it was 1.08 µM; in [6], 0.41 µM; in series [7] it was 0.065 µM; in [5], 0.47 µM; in [10] it was 0.23 µM.
For `O=C(O)c1ccc2c(Br)c(C3(O)CCCCC3)[se][n+]2c1`, the IC50 at 48 h in series [1] stood at 3.55 µM. Further, the IC50 in series [2] is 3.26 µM; in [3] it was 3.85 µM; in series [4], above 1 µM; in series [5], above 10 µM.
As to `COC(=O)c1cc2c(Br)c(C3(O)CCCCC3)[se][n+]2cc1F`, the IC50 at 48 h in series [1] was 1.68 µM. Moreover, the IC50 is 1.16 µM in [2]; 1.19 µM in series [3]; 1.38 µM in [6]; 2.34 µM in series [7] (read-out: IC50); 0.897 µM in series [4]; 1.08 µM in series [5]. Further, inhibition in series [10] was half-maximal at 2.93 µM (IC50). The inhibition in [8] is 29%; in series [9] it was 7%; in [11], 15%.
For `NC(=O)c1cc[n+]2[se]c(C3(O)C4CC5CC(C4)CC3C5)c(Br)c2c1` (stereo not drawn), the IC50 at 48 h in [1] turned out to be 0.91 µM. The IC50 in series [2] came to 0.91 µM; in series [3] it was 0.74 µM; in series [6] it was 0.65 µM; in series [7] (read-out: IC50), 0.56 µM; in series [4], 1.01 µM; in series [5], 0.61 µM. Besides, 2.21 µM corresponded to half-maximal inhibition in series [10] (IC50). Further, the inhibition is 21% in [8], 6% in series [9] and 11% in [11].
Consider `O=c1cc(-c2ccc(O)cc2)oc2cc(O)cc(O)c12` [APIGENIN], for which the IC50 in [4] and in series [12] was above 20 µM each time.
Regarding `NC(=O)c1cccc2c(Br)c(C3(O)CCCCC3)[se][n+]12`, the IC50 at 48 h in series [1] was found to be 2.63 µM. Moreover, the IC50 in series [2] was 1.88 µM; in series [3], 1.33 µM; in series [4], above 1 µM; in series [5], 3.85 µM.
On to `COC(=O)c1cc[n+]2[se]c(C3(O)CCC(F)(F)CC3)c(Br)c2c1`, for which, in [1], the IC50 at 48 h was determined as 1.06 µM. The IC50 in series [2] was found to be 0.48 µM; in [3] it was 0.24 µM; in series [6], 0.48 µM; in series [7] (read-out: IC50), 1.48 µM; in series [4] it was 0.637 µM; in series [12] it was 0.572 µM. Moreover, the values for the IC50 in series [5] and in [10] were 0.28 µM and 1.16 µM, respectively. In addition, the inhibition in [8] was 11%; in series [9], 2%; in series [11] it was 29%.
Turning to `[2H]C([2H])([2H])OC(=O)c1cc[n+]2[se]c(C3(O)CCCCC3)c(Br)c2c1.[Cl-]`, in [1], the IC50 at 48 h turned out to be 0.64 µM. Also, the IC50 was 0.49 µM in series [2]; 0.54 µM in series [3]; 0.4 µM in series [6]; 1.11 µM in series [7] (read-out: IC50); 0.478 µM in [4]; 0.61 µM in [12]. In addition, the IC50 in series [5] came out at 0.38 µM; in series [10], 1.2 µM.
In the case of `COC(=O)c1cc[n+]2[se]c(C3([O-])CCCC3)c(Br)c2c1`, in series [1], the IC50 at 48 h was determined as 0.77 µM. The half-maximal inhibitory concentration (IC50) in series [2] turned out to be 0.48 µM; in series [3], 0.41 µM; in series [6], 1.66 µM; in series [7] (read-out: IC50), 2.04 µM; in series [4], 0.38 µM; in [12] it was 0.517 µM. Also, the IC50 stood at 0.36 µM in series [5] and 8.7 µM in series [10]. The inhibition in series [8] amounted to 20%; in series [9], 6%; in series [11] it was 42%.
On to `NC(=O)c1cc[n+]2[se]c(C3(O)CCC(F)(F)CC3)c(Br)c2c1`, for which the IC50 at 48 h in series [1] came out at 1.41 µM. The IC50 in series [2] is 1.43 µM; in [3] it was 0.6 µM; in series [6] it was 1.36 µM; in series [7] (read-out: IC50), 1.25 µM; in [4] it was 0.362 µM; in [12], 0.542 µM. For the same compound, the IC50 is 1 µM in [5] and 3.17 µM in series [10]. For the same compound, the values for the inhibition in [8], in series [9] and in [11] were 26%, 13% and 40%, respectively.
